Laboratory results reported in US9452119B2, “Nitrone compounds and their use in personal care” (Dow Global Technologies LLC, priority 2011, dated 2016).

Key:
[1] = Oxygen Radical Absorbance Capacity (ORAC) antioxidant potential; design: unit not given here; settings: calculated from ORAC values (AUC minus blank); Trolox as internal control
Method: Antioxidant potential is evaluated using the Oxygen Radical Absorbance Capacity (ORAC) protocol. ORAC is a chemical in-vitro method based on the hydrogen atom transfer (HAT) mechanism. ORAC measures antioxidant inhibition of peroxyl radical induced oxidations and thus reflects classical radical chain breaking antioxidant activity by H atom transfer. In this assay, the peroxyl radical reacts with a fluorescent probe to form a non-fluorescent product. This is quantitated using a fluorescence measurement. Antioxidant capacity is determined by decreased rate and amount of product formed over time. This assay depends upon the free radical damage to the fluorescent probe resulting in the change in its fluorescence intensity. The change of fluorescence intensity is an indicator of the degree of free radical damage. In the presence of an antioxidant, the inhibition of free radical damage is reflected in higher fluorescence intensity and can be measured as antioxidant capacity against the free radicals. The uniqueness of ORAC assay is that the reaction is driven to completion. This allows calculation of the area under the curve (AUC) and gives an absolute quantitation of antioxidancy as opposed to relative measurements in many other assays.
As noted, the longer it takes to observe a decrease in fluorescence, the higher the antioxidant (AO) potential. From the AUC for a given antioxidant, the AUC for blank is subtracted to give its ORAC value. The concentration of AO needed to give the same AUC values as Trolox is calculated and used to represent the Trolox equivalent AO Capacity (TEAC). Trolox is ((±)-6-Hydroxy-2,5,7,8-tetramethylchromane-2-carboxylic acid, CAS #53188-07-1), and is used as an internal control.
The ORAC test is conducted in the compounds of Examples 1-5 (inventive compounds) as well as to Vitamin C, Vitamin E, and the following comparative compounds:
The TEAC values calculated from the ORAC values are listed the Table 2.

Type I collagen = experiment: AAPH radical induced collagen degradation, SDS-PAGE of remaining γ-chain; type: biochemical; settings: incubated with AAPH at 50° C. for 90 mins; antioxidants at same concentration; FIG. 1
Method: Type I collagen, typically found in abundance in skin, is dissolved in 0.04 M acetic acid, pH 4.3, prior to different treatments. For radical induced collagen degradation, aqueous radical initiator 2,2′-azobis-2-methyl-propanimidamide dihydrochloride (AAPH) is used. The collagen samples are incubated with AAPH in the presence of VAN-IPHA (Example 3), pHBz-IPHA (Example 6), and vitamin E (comparative) of the same concentration to determine the efficacy of these antioxidants in preventing collagen degradation. After incubation at 50° C. for 90 mins, the collagen samples are analyzed by SDS-PAGE to determine the degree of degradation by the remaining amount of γ-chain, which is a covalently cross-linked trimer for collagen.

collagen = experiment: UVA-induced collagen degradation, SDS-PAGE / densitometry of collagen γ-bands; type: biochemical; settings: antioxidant at 238 μM, UVA irradiation, FIG. 3
Method: FIG. 3 is a densitometry plot of collagen γ-bands on SDS-PAGE of samples containing antioxidant at concentration of 238 μM.
In addition to the oxidative stress due to radical and ROS generation, oxidative damage to collagen can also be induced by UVA irradiation. Similar to the radical-induced collagen degradation, the effect of UVA in collagen degradation is mitigated by the presence of nitrones.
Similar to the prevention of radical-induced degradation, better efficacy in the inhibitory effect of preventing UVA-induced degradation is also observed for VAN-IPHA (FIG. 3). In this analysis, the effects of VAN-IPHA and pHBz-IPHA are compared to a highly efficacious antioxidant, Resveratrol. […] The stability of nitrones of the invention provide an advantageous alternative solution for antioxidant needs in cosmetic applications, such as anti-aging.

Row | melting point | Compound | TEAC (Trolox equivalent AO Capacity) [1] | extent of collagen degradation (remaining γ-chain) (Type I collagen) | inhibitory effect of preventing UVA-induced collagen degradation (collagen)
1 |  | O=C1O[C@H]([C@@H](O)CO)C(O)=C1O [Vitamin C, reference compound] | 0.76 |  | 
2 |  | Cc1cc(/C=[N+](\[O-])C(C)C)cc(C)c1O [DMHBz-IPHA, (Z)-N-(4-hydroxy-3,5-dimethylbenzylidene)propan-2-amine oxide] | 1.56 |  | 
3 |  | CC(C)/[N+]([O-])=C/c1ccccc1O [SAL-IPHA, (Z)-N-(2-hydroxybenzylidene)propan-2-amine oxide] | 3.02 |  | 
4 |  | COc1cc(/C=[N+](\[O-])C(C)(C)C)ccc1O [VAN-tBHA, (Z)-N-(4-hydroxy-3-methoxybenzylidene)-2-methylpropan-2-amine oxide] | 4.42 |  | 
5 |  | CCCC/C=[N+](\[O-])C(C)C [VAL-IPHA, reference compound] | 0.18 |  | 
6 |  | Cc1cc(C(C)(C)C)c(O)c(C(C)(C)C)c1 [BHT, reference compound] | 0.11-0.21 |  | 
7 |  | CC(C)(C)/[N+]([O-])=C/c1ccccc1 [PBN, reference compound] | 0.04 |  | 
8 |  | Vitamin E [reference compound] | 0.13 |  | 
9 | 178 to 180 °C | COc1cc(/C=[N+](\[O-])C(C)C)ccc1O [VAN-IPHA, (Z)-N-(4-hydroxy-3-methoxybenzylidene)propan-2-amine oxide] | 5.41 | significantly less | better efficacy than Resveratrol
10 | 217 to 218 °C | CC(C)/[N+]([O-])=C/c1ccc(O)cc1 [pHBz-IPHA, (Z)-N-(4-hydroxybenzylidene)propan-2-amine oxide] | 8.67 |  | 
